By IC50 is commonly meant the concentration that gives 50% inhibition. The low end stands for greater potency in that assay, the high end for weaker potency in that assay.

SMILES strings stand for the structures.

The target in the assay is Tyrosine-protein kinase BTK (Homo sapiens, UniProt Q06187). In words: Caliper-based kinase assay. The note with it: 25 °C.
Tyrosine-protein kinase BTK, sequence (Q06187 whole entry): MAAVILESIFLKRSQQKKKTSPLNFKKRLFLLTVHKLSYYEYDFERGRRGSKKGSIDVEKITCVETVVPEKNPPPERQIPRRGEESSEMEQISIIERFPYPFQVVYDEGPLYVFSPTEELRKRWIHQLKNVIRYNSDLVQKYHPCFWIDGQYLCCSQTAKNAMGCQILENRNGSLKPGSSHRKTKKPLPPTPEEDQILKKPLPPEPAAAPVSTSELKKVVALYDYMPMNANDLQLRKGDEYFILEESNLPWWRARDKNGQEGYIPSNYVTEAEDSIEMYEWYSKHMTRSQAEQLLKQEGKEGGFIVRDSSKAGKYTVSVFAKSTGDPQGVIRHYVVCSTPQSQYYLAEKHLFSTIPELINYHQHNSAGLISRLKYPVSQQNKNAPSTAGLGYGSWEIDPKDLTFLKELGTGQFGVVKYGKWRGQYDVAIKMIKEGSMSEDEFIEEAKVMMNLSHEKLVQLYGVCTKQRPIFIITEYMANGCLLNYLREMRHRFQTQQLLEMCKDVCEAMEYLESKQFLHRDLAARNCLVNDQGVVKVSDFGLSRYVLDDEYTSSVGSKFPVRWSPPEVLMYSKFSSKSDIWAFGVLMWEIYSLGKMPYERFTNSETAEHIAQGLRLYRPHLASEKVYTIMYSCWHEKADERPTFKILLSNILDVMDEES

Protocol: A Caliper-based kinase assay (Caliper Life Sciences, Hopkinton, Mass.) was used to measure inhibition of Btk kinase activity of a compound of Formula (I). […] The reaction was then terminated with EDTA, final concentration 20 mM and the phosphorylated reaction product was quantified on a Caliper Desktop Profiler (Caliper LabChip 3000).

`CN(CCn1nc(-c2ccc(Oc3ccccc3)cc2)c2c(N)ncnc21)C(=O)C(C#N)=CC1CC1` [US9572811, Example 36A]: the concentration for half-maximal inhibition (IC50) worked out at 4.3 nM.

For the origin of these results see BindingDB's records for patent US9572811 (Principia Biopharma, 2017).
